Experimental data taken from PubChem BioAssay (NCI).
Several values for one entry are separate records, joined by “and”; a condition that tells them apart may be missing. Equal entries are not always repeated.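 All cell lines were grown in 96-well plates and treated with compound for 48 hours. Abbreviation: GI50, concentration required for 50% inhibition of growth. Definition used: TGI = concentration required for complete inhibition of growth.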

Legend:
Assay in all cases: NCI-60 cell line screen, 48 h
SNB-19 CNS = test system: SNB-19 CNS
TK-10 renal = test system: TK-10 renal
SW-620 colon = test system: SW-620 colon
UACC-257 melanoma = test system: UACC-257 melanoma
RXF 393 renal = test system: RXF 393 renal
SK-MEL-5 melanoma = test system: SK-MEL-5 melanoma
KM12 colon = test system: KM12 colon
MALME-3M melanoma = test system: MALME-3M melanoma
SR leukemia = test system: SR leukemia
HT29 colon = test system: HT29 colon

SMILES	TGI (SNB-19 CNS)	TGI (TK-10 renal)	TGI (SW-620 colon)	TGI (UACC-257 melanoma)	TGI (RXF 393 renal)	TGI (SK-MEL-5 melanoma)	TGI (KM12 colon)	TGI (MALME-3M melanoma)	TGI (SR leukemia)	TGI (HT29 colon)	GI50 (TK-10 renal)	GI50 (UACC-257 melanoma)	GI50 (SR leukemia)	GI50 (RXF 393 renal)	GI50 (SK-MEL-5 melanoma)	GI50 (KM12 colon)	GI50 (MALME-3M melanoma)	GI50 (SNB-19 CNS)	GI50 (SW-620 colon)	GI50 (HT29 colon)
Brc1ccc(-c2[nH]c3ccccc3c2/C=N\Nc2ccc(-c3nc4ccccc4[nH]3)cc2)cc1	> 100 µM	> 100 µM	> 49.5 µM	> 100 µM	> 43.6 µM	1.41 µM	> 100 µM	24 µM	–	–	–	–	–	–	–	–	–	–	–	–
c1ccc(CSC(SCc2ccccc2)c2cccc3ccccc23)cc1	> 10 µM	> 10 µM	> 10 µM	–	> 10 µM	> 10 µM	> 10 µM	> 10 µM	> 10 µM	> 10 µM	–	–	–	–	–	–	–	–	–	–
COc1cc(/C=N/NC(=O)c2c(Cl)c(Cl)c(Cl)c(Cl)c2-c2nc3ccc(C(=O)c4ccccc4)cc3[nH]2)ccc1O	> 100 µM	> 100 µM	> 100 µM	> 100 µM	> 100 µM	> 100 µM	> 100 µM	> 100 µM	54.4 µM	> 100 µM	–	–	–	–	–	–	–	–	–	–
CCOC(=O)C1=C(C(=O)OCC)SC2(S1)C(C(=O)OCC)=C(C(=O)OCC)Sc1c2ssc1=O	15.4 µM	3.16 µM	1.89 µM	3.1 µM	2.47 µM	5.29 µM	10.3 µM	4.19 µM	> 100 µM	3.75 µM	–	–	–	–	–	–	–	–	–	–
Cc1csc2nc(-c3cccc([N+](=O)[O-])c3)c(/C=N/N=C(N)N)n12	–	3.17 µM	2.98 µM	3.22 µM	–	2.74 µM	4.86 µM	–	–	3.27 µM	–	–	–	–	–	–	–	–	–	–
CCCCCCCCCCCCc1ccc(S(=O)(=O)O)cc1.[Cu+2]	> 100 µM	> 100 µM	> 100 µM	> 100 µM	> 100 µM	> 100 µM	> 100 µM	> 100 µM	–	> 100 µM	–	–	–	–	–	–	–	–	–	–
O=C(CSCC(=O)N/N=C\c1ccc(F)cc1F)N/N=C\c1ccc(F)cc1F	> 100 µM	> 100 µM	> 100 µM	> 100 µM	> 100 µM	> 100 µM	> 100 µM	> 100 µM	> 100 µM	> 100 µM	–	–	–	–	–	–	–	–	–	–
COC(=O)c1c(O)ccc2c1c1c(n2CCc2ccc(OC)c(OC)c2)C(=O)c2ccccc2C1=O	> 100 µM	57.1 µM	–	35.8 µM	39.5 µM	23.9 µM	25.6 µM	29.2 µM	51.3 µM	10.5 µM	–	–	–	–	–	–	–	–	–	–
COc1ccccc1C#C/C=C\C#Cc1ccccc1C#N	> 100 µM	> 100 µM	65.7 µM	94.6 µM	83.5 µM	5.95 µM	55.6 µM	47.7 µM	29.9 µM	> 100 µM	–	–	–	–	–	–	–	–	–	–
Cc1ncc(C(=O)Nc2ccc(CN3CCN(C)CC3)c(C(F)(F)F)c2)cc1C#Cc1cnc(N)c2ccc(C#N)cc12	–	2.82 µM	–	1.61 µM	–	–	–	–	> 100 µM	–	0.0572 µM	0.0538 µM	0.0607 µM	–	–	–	–	–	–	–
N#CC1(CCCI)CCCC1	31.6 µM	> 100 µM	> 100 µM	> 100 µM	23 µM	25.5 µM	> 100 µM	80.6 µM	> 100 µM	80.6 µM	–	–	–	–	–	–	–	–	–	–
Cc1cc(C)c2c(=O)n(CC(O)CN(Cc3ccccc3)CC(O)Cn3sc4nc(C)cc(C)c4c3=O)sc2n1 (stereo not drawn)	34.7 µM	31.5 µM	> 100 µM	31.7 µM	33.6 µM	30.1 µM	31.4 µM	27.4 µM	> 100 µM	37.4 µM	–	–	–	–	–	–	–	–	–	–
Cc1[nH]c(C(=O)Nc2ccc(C(=O)NCCN)cc2OC(C)C)c(Cl)c1Cl	–	–	–	–	3.36 µM	3.2 µM	3.21 µM	3.19 µM	–	–	–	–	–	1.71 µM	1.78 µM	1.74 µM	1.46 µM	–	–	–
CC(=O)OC(C(=O)O)C(OC(C)=O)C(OC(C)=O)C(OC(C)=O)C(=O)O (stereo not drawn)	> 100 µM	> 100 µM	> 100 µM	> 100 µM	–	> 100 µM	> 100 µM	> 100 µM	> 100 µM	> 100 µM	–	–	–	–	–	–	–	–	–	–
O=S(=O)(c1ccccc1)C1CC(c2nc3ccccc3[nH]2)=NO1 (stereo not drawn)	> 100 µM	> 100 µM	> 100 µM	> 100 µM	> 100 µM	> 100 µM	–	> 100 µM	> 100 µM	> 100 µM	–	–	–	–	–	–	–	–	–	–
C[C@]12CC[C@H]3[C@@H](CC=C4C[C@@H](O)CC[C@@]43C)[C@@H]1C/C(=C\c1ccncc1)[C@@H]2O	62.1 µM	> 100 µM	> 100 µM	40.4 µM	38 µM	21.1 µM	31.2 µM	62.1 µM	57.3 µM	> 100 µM	–	–	–	–	–	–	–	–	–	–
N#Cc1c(-c2ccc([N+](=O)[O-])cc2)c2c([nH]c1=O)-c1ccccc1CCC2	> 100 µM	> 100 µM	> 100 µM	> 100 µM	73.8 µM	> 100 µM	> 100 µM	> 100 µM	> 100 µM	> 100 µM	–	–	–	–	–	–	–	–	–	–
c1ccc(/C(=N\Nc2nc3ccccc3[nH]2)c2ccccn2)cc1	> 100 µM	3.82 µM	> 69.4 µM	4.63 µM	14.4 µM	4.66 µM	17 µM	8.31 µM	> 31.8 µM	2.69 µM	–	–	–	–	–	–	–	–	–	–
O=C1Nc2cccc(Cl)c2/C1=C\c1cccnc1	16.3 µM	34.7 µM	37.7 µM	16.8 µM	7.48 µM	27.4 µM	25.9 µM	24 µM	–	> 100 µM	–	–	–	–	–	–	–	–	–	–
O=C1OC(c2ccc(O)cc2)(c2ccc(O)cc2)c2ccc(Cl)c3cccc1c23 (tested in a mixture with another compound)	> 75 µM	52.6 µM	33.4 µM	70.1 µM	27.4 µM	29.3 µM	17.9 µM	29.1 µM	28.4 µM	23.9 µM	–	–	–	–	–	–	–	–	–	–
O=C(O)c1cc2ccccc2c(N=Nc2ccc(S(=O)(=O)Nc3ccccn3)cc2)c1O	> 100 µM	> 100 µM	> 100 µM	> 100 µM	> 100 µM	> 100 µM	> 100 µM	> 100 µM	> 100 µM	> 100 µM	–	–	–	–	–	–	–	–	–	–
C[n+]1c2ccccc2c(N=[N+]=[N-])c2ccccc21	> 10 µM	> 10 µM	> 10 µM	> 10 µM	> 10 µM	> 10 µM	> 10 µM	> 10 µM	> 10 µM	> 10 µM	–	–	–	–	–	–	–	–	–	–
CC[C@@]1(O)CC(OC2CC(N3CCOCC3)C(O)C(C)O2)c2c(O)c3c(c(O)c2[C@H]1O)C(=O)c1cccc(O)c1C3=O (stereo partly drawn)	3.92 µM and 4.16 µM	1.7 µM	5.93 µM and 9.38 µM	1.34 µM and 0.69 µM	0.715 µM and 1.15 µM	0.451 µM and 0.181 µM	3.59 µM and 1.68 µM	0.258 µM and 0.339 µM	25 µM	3.23 µM and 2.33 µM	–	0.108 µM	–	–	0.0175 µM	–	0.034 µM	0.0292 µM	0.121 µM	0.0228 µM
C=C(CN(C)C)C(=O)c1ccccc1OC	> 87.6 µM	30.3 µM	19.6 µM	30 µM	23.7 µM	31.1 µM	63 µM	16.5 µM	> 56 µM	46 µM	–	–	–	–	–	–	–	–	–	–
